Patent publication USRE44873E1, “Imidazole-5-carboxylic acid derivatives, the preparation method therefor and the uses thereof” (Salubris Asset Management Co., Ltd., priority 2006, dated 2014)

Key:
[1] = system: spontaneously hypertensive rat (SHR); assay: Effect of lowering blood pressure in spontaneously hypertensive rats (administration through stomach fistula); assay type: in vivo; conditions: female SHR, 30 mg/kg through stomach fistula, recorded in 6 hours after administration; for Systolic blood pressure post-administration: first figure of pair; for Diastolic blood pressure post-administration: second figure of pair
Protocol: A female spontaneously hypertensive rat (SHR) is anaesthetize by abdominal cavity injection with diazepam of 5 mg/kg and ketamine hydrochloride of 50 mg/kg and its back is fixed. An artery conduit is inserted from the left of a femoral artery to a lower abdominal aorta, and then a stomach fistula treatment is operated. After 20-30 hours for postoperative recovery, the artery conduit is connected to a pressure transducer by a perfusion three-way tube. Blood pressure signals per pulse are transformed into biologic signals by the pressure transducer, and systolic blood pressures and diastolic blood pressures per pulse are real-time recorded by a computer. After the SHR is connected to the computer system for 4-5 hours, blood pressures and palpitation intervals in one hour are recorded as normal comparing data before administration. Afterwards, the medicine with a dosage of 30 mg/kg and a volume of 2 ml/kg is administrated through the stomach fistula. Blood pressures in 6 hours after administration are continuously recorded to observe change of systolic blood pressure and diastolic blood pressure.
A female spontaneously hypertensive rat (SHR) is anaesthetize by abdominal cavity injection with diazepam of 5 mg/kg and ketamine hydrochloride of 50 mg/kg and its back is fixed. An artery conduit is inserted from the left of a femoral artery to a lower abdominal aorta, and than a stomach fistula treatment is operated. After 20-30 hours for postoperative recovery, the artery conduit is connected to it pressure transducer by a perfusion three-way tube. Blood pressure signals per pulse are transformed into biologic signals by pressure transducer, and systolic blood pressures and diastolic blood pressures per pulse are real-time recorded by a computer. When the SHR is connected to the computer system for 4-5 hours, blood pressures and palpitation intervals in one hour are recorded as normal comparing data before administration. Afterwards, it is adminstrated with a dosage of 30 mg/kg and a volume of 2 ml/kg through the stomach fistula. Blood pressures in 6 hours after administration are continuously recorded to observe changes of systolic blood pressure and diastolic blood pressure.

[2] = in vivo; conditions: both, Kunming, mouse, po
[3] = Efficiency of active metabolism conversion (EXP3174 in blood plasma by HPLC after oral dosing); assay type: in vivo; conditions: SD rats, 20 mg/kg oral intragastric infusion, blood at 3 hours
Protocol: The SD rats are orally administrated by intragastric infusion with a dosage of 20 mg/kg. Blood samples are collected from an orbit at the time of 3 hours since the administration. The blood samples freely drop into centrifuge tubes. The sampling amount of blood is 0.3˜0.5 ml, and the blood plasma is centrifugalized. After the sample is pre-treated, the blood is analyzed by using HPLC method to get the amount of EXP3174 in the blood plasma. Based on the molar ratio of the amount of EXP3174 and the amount of administration dosage, a ratio of the experiment compounds being converted into active metabolite in vivo may be calculated.

[4] = system: Kunming mice; assay: Evaluation of toxicity (acute LD50, intragastric); conditions: one intragastric administration, 14 days observation, 0.5% CMC-Na
[5] = cited from earlier work
[6] = relative to EXP3174; cited from earlier work

Structure (SMILES) | Systolic blood pressure post-administration [1] | Diastolic blood pressure post-administration [1] | LD50 at 14 days [2] | further results
CCCCc1nc(Cl)c(C(=O)OCOC(=O)C(C)(C)C)n1Cc1ccc(-c2ccccc2-c2nnn[nH]2)cc1 [Compound 4, 2-butyl-4-chloro-1-[2′-(1H-tetrazol-5-yl)1,1′-biphenyl-methyl]imidazole-5-carboxylic acid, pivaloyloxymethyl ester] | 159 mmHg | 102 mmHg |  | 
CCCCc1nc(Cl)c(C(=O)OCOC(=O)OCC)n1Cc1ccc(-c2ccccc2-c2nnn[nH]2)cc1 [Compound 9, 2-butyl-4-chloro-1-[2′-(1H-tetrazol-5-yl)1,1′-biphenyl-methyl]imidazole-5-carboxylic acid, 1-[(ethoxycarbonyl)oxy]methyl ester] | 159 mmHg | 104 mmHg | > 10000 mg/kg | 
CCCCc1nc(Cl)c(C(=O)OCC)n1Cc1ccc(-c2ccccc2-c2nnn[nH]2)cc1 [Compound 1, 2-butyl-4-chloro-1-[2′-(1H-tetrazol-5-yl)1,1′-biphenyl-methyl]imidazole-5-carboxylic acid, ethyl ester] | 159 mmHg | 103 mmHg |  | 
CCCCc1nc(Cl)c(C(=O)OC(C)OC(=O)OC2CCCCC2)n1Cc1ccc(-c2ccccc2-c2nnn[nH]2)cc1 (racemic) [Compound 7, (+/−)2-butyl-4-chloro-1-[2′-(1H-tetrazol-5-yl)1,1′-biphenyl-methyl]imidazole-5-carboxylic acid, 1-[(cyclohexyloxycarbonyl)oxy]ethyl ester] | 157 mmHg | 103 mmHg |  | 
CCCCc1nc(Cl)c(C(=O)OCOC(=O)OC(C)C)n1Cc1ccc(-c2ccccc2-c2nnn[nH]2)cc1 [Compound 8, 2-butyl-4-chloro-1-[2′-(1H-tetrazol-5-yl)1,1′-biphenyl-methyl]imidazole-5-carboxylic acid, 1-[(isopropoxycarbonyl)oxy]methyl ester] | 156 mmHg | 101 mmHg | > 10000 mg/kg | 
CCCCc1nc(Cl)c(C(=O)OC(C)OC(=O)OCC)n1Cc1ccc(-c2ccccc2-c2nn[nH]n2)cc1 (stereo not drawn) [HN-65021] |  |  |  | metabolism conversion ratio (molar ratio of EXP3174 in blood plasma to administered dosage) [3]: 1.5%; LD50 [4]: 5000 to 8000 mg/kg
CCCCc1nc(Cl)c(C(=O)OCOC(=O)OC(C)(C)C)n1Cc1ccc(-c2ccccc2-c2nnn[nH]2)cc1 [Compound 10, 2-butyl-4-chloro-1-[2′-(1H-tetrazol-5-yl)1,1′-biphenyl-methyl]imidazole-5-carboxylic acid, 1-[(tert-butoxycarbonyl)oxy]methyl ester] | 158 mmHg | 103 mmHg | > 10000 mg/kg | 
CCCCc1nc(Cl)c(C(=O)OCc2oc(=O)oc2C)n1Cc1ccc(-c2ccccc2-c2nnn[nH]2)cc1 [Compound 3, 2-butyl-4-chloro-1-[2′-(1H-tetrazol-5-yl)1,1′-biphenyl-methyl]imidazole-5-carboxylic acid, cyclic 2,3-carbonate] | 158 mmHg | 102 mmHg |  | 
CCCCc1nc(Cl)c(C(=O)OC(C)OC(=O)OC(C)C)n1Cc1ccc(-c2ccccc2-c2nnn[nH]2)cc1 (stereo not drawn) [Compound 5, 2-butyl-4-chloro-1-[2′-(1H-tetrazol-5-yl)1,1′-biphenyl-methyl]imidazole-5-carboxylic acid, 1-[(isopropoxycarbonyl)oxy]ethyl ester] | 157 mmHg | 101 mmHg |  | 
CCCCc1nc(Cl)c(C(=O)OC2OC(=O)c3ccccc32)n1Cc1ccc(-c2ccccc2-c2nnn[nH]2)cc1 (racemic) [Compound 2, (+/−)2-butyl-4-chloro-1-[2′-(1H-tetrazol-5-yl)1,1′-biphenyl-methyl]imidazole-5-carboxylic acid, 2-[C]-benzofuranonyl ester] | 155 mmHg | 105 mmHg |  | melting point: 120.6 to 124.6 °C
CCCCc1nc(Cl)c(CO)n1Cc1ccc(-c2ccccc2-c2nn[nH]n2)cc1 [losartan potassium] |  |  | 2000 mg/kg | Share of losartan potassium metabolized in vivo to its active substance EXP3174 [5]: 14%; Activity in reducing blood pressure as share of that of EXP3174 [6]: 3%
CCCCc1nc(Cl)c(C(=O)OC(C)OC(=O)OC(C)(C)C)n1Cc1ccc(-c2ccccc2-c2nnn[nH]2)cc1 (stereo not drawn) [Compound 6, 2-butyl-4-chloro-1-[2′-(1H-tetrazol-5-yl)1,1′-biphenyl-methyl]imidazole-5-carboxylic acid, 1-[(tert-butoxycarbonyl)oxy]ethyl ester] | 159 mmHg | 103 mmHg |  | melting point: 60.5 to 62 °C
